{
  "source": "paper PMC5218480",
  "about": "(PLoS ONE, 2017)",
  "tested_on": "MV-4-11 cells",
  "test": "Gene expression microarray analysis (Affymetrix PrimeView) and GSEA",
  "type": "cell-based, human",
  "set-up": "RFU PODN (11730768_x_at) / Fold change /veh PODN (11730768_x_at) / RFU LINC00158 (11744669_a_at) / Fold change /veh LINC00158 (11744669_a_at) / RFU DUSP10 (11751237_a_at) / Fold change /veh DUSP10 (11751237_a_at) / RFU ID3 (11757404_x_at) / Fold change /veh ID3 (11757404_x_at) / RFU PLEKHG5 (11737974_s_at) / Fold change /veh PLEKHG5 (11737974_s_at) / RFU LRRC4B (11730491_at) / Fold change /veh LRRC4B (11730491_at) / RFU GIMAP4 (11747438_a_at) / Fold change /veh GIMAP4 (11747438_a_at) / RFU KRT8 (11758183_x_at) / Fold change /veh KRT8 (11758183_x_at) / RFU CNN1 (11734310_a_at) / Fold change /veh CNN1 (11734310_a_at) / RFU VPS37D (11726825_at) / Fold change /veh VPS37D (11726825_at) / RFU C10orf10 (11716522_x_at) / Fold change /veh C10orf10 (11716522_x_at) / RFU KIR2DL2 /// KIR2DL4 /// KIR2DL5A /// KIR2DL5B /// KIR2DS1 /// KIR2DS2 /// KIR2DS3 /// KIR2DS4 /// KIR3DL3 /// KIR3DL3 /// KIR3DS1 (11738374_at) / Fold change /veh KIR2DL2 /// KIR2DL4 /// KIR2DL5A /// KIR2DL5B /// KIR2DS1 /// KIR2DS2 /// KIR2DS3 /// KIR2DS4 /// KIR3DL3 /// KIR3DL3 /// KIR3DS1 (11738374_at) / RFU C1QL1 (11718748_at) / Fold change /veh C1QL1 (11718748_at) / RFU TMPRSS4 (11747572_a_at) / Fold change /veh TMPRSS4 (11747572_a_at) / RFU HAMP (11756126_x_at) / Fold change /veh HAMP (11756126_x_at) / RFU RNFT2 (11725882_a_at) / Fold change /veh RNFT2 (11725882_a_at) / RFU NR4A2 (11747474_a_at) / Fold change /veh NR4A2 (11747474_a_at) / RFU ABCC12 (11746883_a_at) / Fold change /veh ABCC12 (11746883_a_at) / RFU TMEM136 (11760407_x_at) / Fold change /veh TMEM136 (11760407_x_at) / RFU CLDN22 /// WWC2 (11732394_at) / Fold change /veh CLDN22 /// WWC2 (11732394_at) / RFU HLA-DPB1 (11760878_x_at) / Fold change /veh HLA-DPB1 (11760878_x_at) / RFU SPINT1 (11716480_a_at) / Fold change /veh SPINT1 (11716480_a_at) / RFU GAP43 (11754022_s_at) / Fold change /veh GAP43 (11754022_s_at) / RFU A4GNT (11735810_at) / Fold change /veh A4GNT (11735810_at) / RFU PRB3 (11715151_x_at) / Fold change /veh PRB3 (11715151_x_at) / RFU TUBB4B (11761932_at) / Fold change /veh TUBB4B (11761932_at) / RFU CAPN14 (11732068_a_at) / Fold change /veh CAPN14 (11732068_a_at) / RFU TMCC2 (11721928_a_at) / Fold change /veh TMCC2 (11721928_a_at) / RFU IRGQ (11745062_a_at) / Fold change /veh IRGQ (11745062_a_at) / RFU FAM174B (11720279_a_at) / Fold change /veh FAM174B (11720279_a_at) / RFU TMPRSS4 (11748680_a_at) / Fold change /veh TMPRSS4 (11748680_a_at) / RFU FAM212B (11763350_a_at) / Fold change /veh FAM212B (11763350_a_at) / RFU PLEKHG5 (11743358_a_at) / Fold change /veh PLEKHG5 (11743358_a_at) / RFU ZSCAN30 (11745921_a_at) / Fold change /veh ZSCAN30 (11745921_a_at) / RFU CMKLR1 (11741424_a_at) / Fold change /veh CMKLR1 (11741424_a_at) / RFU LOC101060620 /// MAPK8IP1 (11723275_at) / Fold change /veh LOC101060620 /// MAPK8IP1 (11723275_at) / RFU SPTSSB (11747773_x_at) / Fold change /veh SPTSSB (11747773_x_at) / RFU PRSS12 (11739890_at) / Fold change /veh PRSS12 (11739890_at) / RFU BIN1 (11741810_x_at) / Fold change /veh BIN1 (11741810_x_at) / RFU WNT11 (11732464_a_at) / Fold change /veh WNT11 (11732464_a_at) / RFU C10orf10 (11716521_a_at) / Fold change /veh C10orf10 (11716521_a_at) / RFU C5orf56 (11738089_at) / Fold change /veh C5orf56 (11738089_at) / RFU CYB561 (11721691_x_at) / Fold change /veh CYB561 (11721691_x_at) / RFU ANKRD19P (11752326_a_at) / Fold change /veh ANKRD19P (11752326_a_at) / RFU OR2T12 /// OR2T33 /// OR2T8 (11738714_s_at) / Fold change /veh OR2T12 /// OR2T33 /// OR2T8 (11738714_s_at) / RFU VCAN (11748164_a_at) / Fold change /veh VCAN (11748164_a_at) / RFU JSRP1 (11732532_at) / Fold change /veh JSRP1 (11732532_at) / RFU KRTAP10-11 (11738290_x_at) / Fold change /veh KRTAP10-11 (11738290_x_at) / RFU MYO3A (11730013_a_at) / Fold change /veh MYO3A (11730013_a_at) / RFU EBF3 (11725865_a_at) / Fold change /veh EBF3 (11725865_a_at) / RFU CAMK2N1 (11719241_x_at) / Fold change /veh CAMK2N1 (11719241_x_at) / RFU C5orf56 (11738088_a_at) / Fold change /veh C5orf56 (11738088_a_at) / RFU OLFML3 (11715873_a_at) / Fold change /veh OLFML3 (11715873_a_at) / RFU LOC100653217 /// NTM (11731650_a_at) / Fold change /veh LOC100653217 /// NTM (11731650_a_at) / RFU MAPK11 (11762145_a_at) / Fold change /veh MAPK11 (11762145_a_at) / RFU FIZ1 (11724087_x_at) / Fold change /veh FIZ1 (11724087_x_at) / RFU OASL (11726364_x_at) / Fold change /veh OASL (11726364_x_at) / RFU SOX15 (11748057_x_at) / Fold change /veh SOX15 (11748057_x_at) / RFU CD79A (11719716_a_at) / Fold change /veh CD79A (11719716_a_at) / RFU HIST1H1D (11736915_at) / Fold change /veh HIST1H1D (11736915_at) / RFU CASKIN2 (11723855_a_at) / Fold change /veh CASKIN2 (11723855_a_at) / RFU LOC730098 (11760151_x_at) / Fold change /veh LOC730098 (11760151_x_at) / RFU OR4N2 (11742367_at) / Fold change /veh OR4N2 (11742367_at) / RFU PRRT2 (11749266_a_at) / Fold change /veh PRRT2 (11749266_a_at) / RFU SNX32 (11753110_a_at) / Fold change /veh SNX32 (11753110_a_at) / RFU CDHR5 (11726645_a_at) / Fold change /veh CDHR5 (11726645_a_at) / RFU RCAN1 (11760418_a_at) / Fold change /veh RCAN1 (11760418_a_at) / RFU FAM167A (11723789_a_at) / Fold change /veh FAM167A (11723789_a_at) / RFU FAM26E (11764081_at) / Fold change /veh FAM26E (11764081_at) / RFU ISYNA1 (11749810_s_at) / Fold change /veh ISYNA1 (11749810_s_at) / RFU ACY1 (11761880_at) / Fold change /veh ACY1 (11761880_at) / RFU 11764098_at / Fold change /veh 11764098_at / RFU SAMD14 (11745864_x_at) / Fold change /veh SAMD14 (11745864_x_at) / RFU NPB (11741838_a_at) / Fold change /veh NPB (11741838_a_at) / RFU TMPRSS6 (11731388_a_at) / Fold change /veh TMPRSS6 (11731388_a_at) / RFU KRTAP10-2 (11738614_at) / Fold change /veh KRTAP10-2 (11738614_at) / RFU ARHGAP8 /// PRR5-ARHGAP8 (11727945_x_at) / Fold change /veh ARHGAP8 /// PRR5-ARHGAP8 (11727945_x_at) / RFU KRTAP5-7 /// NADSYN1 (11734609_at) / Fold change /veh KRTAP5-7 /// NADSYN1 (11734609_at) / RFU RASL12 (11751679_a_at) / Fold change /veh RASL12 (11751679_a_at) / RFU CDKN2B (11736163_a_at) / Fold change /veh CDKN2B (11736163_a_at) / RFU PRF1 (11729649_at) / Fold change /veh PRF1 (11729649_at) / RFU, ZNF638 /// ZNF638-IT1 / Fold change vs veh, ZNF638 /// ZNF638-IT1 / RFU, PANK3 / Fold change vs veh, PANK3 / RFU, SH3YL1 / Fold change vs veh, SH3YL1 / RFU, ZEB2 / Fold change vs veh, ZEB2 / RFU, NRIP1 / Fold change vs veh, NRIP1 / RFU, PTTG1IP / Fold change vs veh, PTTG1IP / RFU, CAPN2 / Fold change vs veh, CAPN2 / RFU, MED14 / Fold change vs veh, MED14 / RFU, SNORA58 / Fold change vs veh, SNORA58 / RFU, C1orf63 / Fold change vs veh, C1orf63 / RFU, LRRFIP1 / Fold change vs veh, LRRFIP1 / RFU, NDUFAF7 / Fold change vs veh, NDUFAF7 / RFU, SLC12A2 / Fold change vs veh, SLC12A2 / RFU, IBTK / Fold change vs veh, IBTK / RFU, ESF1 / Fold change vs veh, ESF1 / Fold change vs veh, TMEM50B / RFU, TAOK1 / Fold change vs veh, TAOK1 / RFU, ACBD3 / Fold change vs veh, ACBD3 / RFU, TMA16 / Fold change vs veh, TMA16 / RFU, RWDD3 / Fold change vs veh, RWDD3 / RFU, BCAT1 / Fold change vs veh, BCAT1 / RFU, EDEM3 / Fold change vs veh, EDEM3 / RFU, TMEM33 / Fold change vs veh, TMEM33 / RFU, WDR75 / Fold change vs veh, WDR75 / RFU, AHCTF1 / Fold change vs veh, AHCTF1 / RFU, TFRC / Fold change vs veh, TFRC / RFU, ZDHHC17 / Fold change vs veh, ZDHHC17 / RFU, NOM1 / Fold change vs veh, NOM1 / RFU, ARL8B / Fold change vs veh, ARL8B / RFU, ZBTB11 / Fold change vs veh, ZBTB11 / RFU, TAMM41 / Fold change vs veh, TAMM41 / RFU, KIAA1704 /// LOC100996395 / Fold change vs veh, KIAA1704 /// LOC100996395 / RFU, ING1 / Fold change vs veh, ING1 / RFU, TRMT61B / Fold change vs veh, TRMT61B / RFU, FUBP3 / Fold change vs veh, FUBP3 / RFU, TP53 / Fold change vs veh, TP53 / RFU, TNKS2 / Fold change vs veh, TNKS2 / RFU, ZFP14 / Fold change vs veh, ZFP14 / RFU, ACTR2 / Fold change vs veh, ACTR2 / RFU, PPP3R1 / Fold change vs veh, PPP3R1 / RFU, PIK3R1 / Fold change vs veh, PIK3R1 / RFU, HNRNPA1 / Fold change vs veh, HNRNPA1 / RFU, RNF170 / Fold change vs veh, RNF170 / RFU, ZNF28 / Fold change vs veh, ZNF28 / RFU, RNGTT / Fold change vs veh, RNGTT / RFU, OGT / Fold change vs veh, OGT / RFU, BRD1 / Fold change vs veh, BRD1 / RFU, MARS / Fold change vs veh, MARS / RFU, ZNF655 / Fold change vs veh, ZNF655 / RFU, FAHD1 / Fold change vs veh, FAHD1 / RFU, BDP1 / Fold change vs veh, BDP1 / RFU, LRRCC1 / Fold change vs veh, LRRCC1 / RFU, ARID1A / Fold change vs veh, ARID1A / RFU, ZNF146 / Fold change vs veh, ZNF146 / RFU, ZNF330 / Fold change vs veh, ZNF330 / RFU, GPN3 / Fold change vs veh, GPN3 / RFU, C9orf123 / Fold change vs veh, C9orf123 / RFU, N4BP2L2 / Fold change vs veh, N4BP2L2 / RFU, ARFIP1 / Fold change vs veh, ARFIP1 / RFU, FAM179B / Fold change vs veh, FAM179B / RFU, BCL10 / Fold change vs veh, BCL10 / RFU, UHRF1BP1L / Fold change vs veh, UHRF1BP1L / RFU, BET1 / Fold change vs veh, BET1 / RFU, CNOT2 / Fold change vs veh, CNOT2 / RFU, ZNF268 / Fold change vs veh, ZNF268 / Fold change vs veh, ZNF507 / RFU, DGCR2 / Fold change vs veh, DGCR2 / RFU, WDSUB1 / Fold change vs veh, WDSUB1 / Fold change vs veh, HSP90B1 /// MIR3652 / RFU, ADSS / Fold change vs veh, ADSS / RFU, GK / Fold change vs veh, GK / RFU, ZNF148 / Fold change vs veh, ZNF148 / RFU, TAF9 / Fold change vs veh, TAF9 / RFU, SLC1A5 / Fold change vs veh, SLC1A5 / RFU, SLMO2 / Fold change vs veh, SLMO2 / RFU, ABCC4 / Fold change vs veh, ABCC4 / RFU, LOC101060439 /// RAP1B / Fold change vs veh, LOC101060439 /// RAP1B / RFU, RFX7 / Fold change vs veh, RFX7 / RFU, GTPBP10 / Fold change vs veh, GTPBP10 / RFU, CNEP1R1 / Fold change vs veh, CNEP1R1 / RFU, BIVM-ERCC5 /// ERCC5 / Fold change vs veh, BIVM-ERCC5 /// ERCC5 / RFU, ILF3 / Fold change vs veh, ILF3 / RFU 11762660_at / Fold change /veh 11762660_at / RFU VCAN (11757783_s_at) / Fold change /veh VCAN (11757783_s_at) / RFU DDX43 (11728927_at) / Fold change /veh DDX43 (11728927_at) / RFU KRT8 (11758188_x_at) / Fold change /veh KRT8 (11758188_x_at) / RFU NKD1 (11759106_at) / Fold change /veh NKD1 (11759106_at) / RFU SRD5A1 (11742802_a_at) / Fold change /veh SRD5A1 (11742802_a_at) / RFU TPSAB1 /// TPSB2 (11721975_s_at) / Fold change /veh TPSAB1 /// TPSB2 (11721975_s_at) / RFU GSTM3 (11746129_a_at) / Fold change /veh GSTM3 (11746129_a_at) / RFU IL23R (11737362_x_at) / Fold change /veh IL23R (11737362_x_at) / RFU TMEM51 (11727254_a_at) / Fold change /veh TMEM51 (11727254_a_at) / RFU PIWIL2 (11732686_x_at) / Fold change /veh PIWIL2 (11732686_x_at) / RFU ORM1 (11744905_x_at) / Fold change /veh ORM1 (11744905_x_at) / RFU CCDC152 (11743942_at) / Fold change /veh CCDC152 (11743942_at) / RFU ECM1 (11717891_a_at) / Fold change /veh ECM1 (11717891_a_at) / RFU IL23R (11748794_a_at) / Fold change /veh IL23R (11748794_a_at) / RFU TNFAIP8L3 (11732012_x_at) / Fold change /veh TNFAIP8L3 (11732012_x_at) / RFU MBOAT4 (11741988_at) / Fold change /veh MBOAT4 (11741988_at) / RFU 11764193_at / Fold change /veh 11764193_at / RFU TMEM53 (11763286_at) / Fold change /veh TMEM53 (11763286_at) / RFU MAGEB2 (11727129_at) / Fold change /veh MAGEB2 (11727129_at) / RFU TMEM200A (11744735_a_at) / Fold change /veh TMEM200A (11744735_a_at) / RFU CCDC152 (11751479_a_at) / Fold change /veh CCDC152 (11751479_a_at) / RFU FAM211A (11726209_a_at) / Fold change /veh FAM211A (11726209_a_at) / RFU RGS16 (11746705_a_at) / Fold change /veh RGS16 (11746705_a_at) / RFU VCAN (11755009_s_at) / Fold change /veh VCAN (11755009_s_at) / RFU RHOB (11743442_s_at) / Fold change /veh RHOB (11743442_s_at) / RFU RGS16 (11720943_a_at) / Fold change /veh RGS16 (11720943_a_at) / RFU RGS16 (11720944_at) / Fold change /veh RGS16 (11720944_at) / RFU, VPS4B / Fold change vs veh, VPS4B / RFU, CREB1 / Fold change vs veh, CREB1 / RFU, DNAJC13 / Fold change vs veh, DNAJC13 / RFU, GNAQ / Fold change vs veh, GNAQ / RFU, CDK5R1 / Fold change vs veh, CDK5R1 / RFU, ZRANB3 / Fold change vs veh, ZRANB3 / RFU, CUL4A / Fold change vs veh, CUL4A / RFU, CCNY / Fold change vs veh, CCNY / RFU, UFL1 / Fold change vs veh, UFL1 / RFU, COG3 / Fold change vs veh, COG3 / RFU, DIAPH2 / Fold change vs veh, DIAPH2 / RFU, SKA2 / Fold change vs veh, SKA2 / RFU, AFF3 / Fold change vs veh, AFF3 / RFU, LMF1 / Fold change vs veh, LMF1 / RFU, IPO11 / Fold change vs veh, IPO11 / RFU, DFFB / Fold change vs veh, DFFB / RFU, FOXP1 / Fold change vs veh, FOXP1 / RFU, CARD8 / Fold change vs veh, CARD8 / RFU, STRN3 / Fold change vs veh, STRN3 / RFU, ADK / Fold change vs veh, ADK / RFU, RASSF2 / Fold change vs veh, RASSF2 / RFU, WIPF1 / Fold change vs veh, WIPF1 / RFU, LARP1B / Fold change vs veh, LARP1B / RFU, RASA1 / Fold change vs veh, RASA1 / RFU, RB1 / Fold change vs veh, RB1 / RFU, PPFIA1 / Fold change vs veh, PPFIA1 / RFU, MAT2A / Fold change vs veh, MAT2A / RFU, CCT5 / Fold change vs veh, CCT5 / RFU, WDR92 / Fold change vs veh, WDR92 / RFU, CUX1 / Fold change vs veh, CUX1 / RFU, TTC7A / Fold change vs veh, TTC7A / RFU, TMEM135 / Fold change vs veh, TMEM135 / RFU, DEPTOR / Fold change vs veh, DEPTOR / RFU, CPM / Fold change vs veh, CPM / RFU, DNAJB6 / Fold change vs veh, DNAJB6 / RFU, CACNA2D3 / Fold change vs veh, CACNA2D3 / RFU, DTX4 / Fold change vs veh, DTX4 / RFU, TFCP2 / Fold change vs veh, TFCP2 / RFU, GMCL1 /// GMCL1P1 / Fold change vs veh, GMCL1 /// GMCL1P1 / RFU, AEBP2 / Fold change vs veh, AEBP2 / RFU, SNHG1 /// SNORD22 /// SNORD25 /// SNORD26 /// SNORD27 /// SNORD28 /// SNORD29 /// SNORD31 / Fold change vs veh, SNHG1 /// SNORD22 /// SNORD25 /// SNORD26 /// SNORD27 /// SNORD28 /// SNORD29 /// SNORD31 / Fold change (Aza/veh), C12orf56 (ProbeSet 11735607_a_at) / Fold change (ACY-1035/veh), C12orf56 (ProbeSet 11735607_a_at) / Fold change (Aza/veh), FGFR1OP (ProbeSet 11751329_s_at) / Fold change (ACY-1035/veh), FGFR1OP (ProbeSet 11751329_s_at) / Fold change (Aza/veh), VPS36 (ProbeSet 11739960_a_at) / Fold change (ACY-1035/veh), VPS36 (ProbeSet 11739960_a_at) / RFU SYPL1 (11715823_x_at) / Fold change /veh SYPL1 (11715823_x_at) / RFU IGFBP7 (11715501_s_at) / Fold change /veh IGFBP7 (11715501_s_at) / RFU REEP3 (11722064_at) / Fold change /veh REEP3 (11722064_at) / RFU IGLL1 (11728026_x_at) / Fold change /veh IGLL1 (11728026_x_at): dose or concentration left out as unconfirmed",
  "conditions": "MV-4-11 cells, 48 hours",
  "data": [
    {"smiles": "Nc1ncn([C@@H]2O[C@H](CO)[C@@H](O)[C@H]2O)c(=O)n1", "note": "[azacitidine]", "values": [
      {"measurement": "Fold change /veh GSTM3 (11746129_a_at)", "value": 1.35}
    ]}
  ]
}
